Data on 15 compounds can be found in patent publication US12286429B2, “5-oxo-1,2,3,5,8,8a-hexahydroindolizine-3-carboxamide derivatives useful as a factor XIa inhibitors” (Janssen Pharmaceutica NV, priority 2021, dated 2025).

Assay [1] concerns the target human plasma kallikrein (Homo sapiens, UniProt P03952). In words: Kallikrein inhibition assay utilizing a quenched AMC peptide substrate (FLINT). Conditions: 11-point, 3-fold serial dilution, top 1 μM; 30 min preincubation; 2 nM kallikrein; 50 μM Z-Gly-Pro-Arg-AMC; kinetic reads over 30 min. Type of assay: biochemical. The procedure:
Biological Example 2: Kallikrein Inhibition Assay Utilizing a Quenched AMC Peptide Substrate
A fluorescence intensity (FLINT) based assay was used to monitor inhibition of human plasma kallikrein. The peptide substrate, Z-Gly-Pro-Arg-AMC (Purchased from Bachem; Catalog #I-1150) was chosen based on its relatively low KM for kallikrein which enables running the assay at lower substrate concentrations to control background fluorescence. The kinetic parameters for this substrate were determined by fitting titration data to the Michaelis-Menten equation yielding a KM=40 μM, kcat=0.76 s^−1, and kcat/KM=18932 M^−1s^−1.
The Kallikrein FLINT assay was used with the following Z-Gly-Pro-Arg-AMC assay buffer: 50 mM Tris, pH 7.5, 100 mM NaCl, 5 mM CaCl2, 0.1 mg/mL BSA, 0.03% CHAPS. Assay buffer was prepared by mixing all ingredients fresh. 2× Z-Gly-Pro-Arg-AMC peptide substrate was prepared by diluting 10 mM stock into 1× assay buffer for a 100 μM working concentration (50 μM final concentration). The 2× kallikrein stock solution was prepared by diluting 14.76 μM stock in 1× assay buffer for a 4 nM working stock solution (2 nM final concentration).
Test compound(s) were run in an 11-point, 3-fold serial dilution with a final top compound concentration of 1 μM. Final DMSO in assay was 2%. Plasma kallikrein was pre-incubated for 30-minute with compound and then 50 μM substrate was added to initiate the reaction. The assay was run with kinetic (KIN) reads at 5 min intervals over 30 minutes. The time course was linear using 2 nM kallikrein greater than 30 minutes. More specifically, the assay was run as follows: • 100 nL of 0.1 mM test compound was dispensed into black 384-well non-binding Greiner BioOne 784900 plate for 1 μM final concentration; • 5 μL of 1× assay buffer was dispensed to columns 24 (low control) and 5 μL 2× human kallikrein enzyme solution was dispensed to columns 1-23 (column 23 high control); • the plate was centrifuged with a “cover” plate at 500 rpm for 1 min • the plate was pre-incubated for 30 minutes at room temperature with plate covered; • 5 μL of 2× Z-Gly-Pro-Arg-AMC peptide substrate was dispensed into the entire plate, columns 1-24; • the plate was centrifuged with a “cover” plate at 500 rpm for 1 min; • the plate was read monitoring fluorescence intensity on the BMG PHERAStar at room temperature, using fluorescence module 340 nm/440 nm.
(§1) Percent inhibition (IC50) curves were generated per compound tested, and data was analyzed using a 4-parameter logistic fit using GeneData Screener. The relative fluorescence unit (RFU) values were normalized to percent inhibition using the following equation: % inhibition=((HC−LC)−(compound−LC)/(HC−LC))*100
where LC—low control=mean signal of […] 100% inhibition of human kallikrein enzyme; HC—high control=mean signal of […]+Z-Gly-Pro-Arg-AMC peptide substrate with DMSO only.
(§2) An 11-point dose response curve for the test compound(s) was generated using GENDATA to determine IC50 value based on the following equation: Y=Bottom+(Top−Bottom)/(1+10^((log IC50−X)*HillSlope))
where Y is the % inhibition in the presence of X inhibitor concentration, Top=high control=mean signal of human kallikrein enzyme+Z-Gly-Pro-Arg-AMC peptide substrate with DMSO only; Bottom=low control—mean signal of no human kallikrein enzyme or 100% inhibition of human kallikrein enzyme; HillSlope—Hill coefficient; and IC50=concentration of compound with 50% inhibition in relation to top/high control.

Assay [2] deals with Factor XIa (Homo sapiens, UniProt P03951). The assay is described as follows: Factor XIa inhibition assay utilizing a fluorophore-quencher pair peptide substrate (FLINT). The assay is classed as biochemical. The settings on record: 11-point, 3-fold serial dilution, top 100 nM; 30 min preincubation; 15 μM 5Fam-KLTRAETV-K5Tamra substrate; kinetic reads over 30 min; read-out: FXIa Inhibition IC50.
Sequence of Factor XIa (P03951 388-625 limits assumed): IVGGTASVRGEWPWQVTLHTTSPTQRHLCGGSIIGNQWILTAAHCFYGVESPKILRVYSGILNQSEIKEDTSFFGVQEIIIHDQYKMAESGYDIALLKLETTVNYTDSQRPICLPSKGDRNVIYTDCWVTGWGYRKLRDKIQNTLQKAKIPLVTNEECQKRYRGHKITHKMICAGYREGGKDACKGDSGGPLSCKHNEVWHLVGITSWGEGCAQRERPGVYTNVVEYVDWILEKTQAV
Sequence of Factor XIa (P03951 19-387 partner limits assumed): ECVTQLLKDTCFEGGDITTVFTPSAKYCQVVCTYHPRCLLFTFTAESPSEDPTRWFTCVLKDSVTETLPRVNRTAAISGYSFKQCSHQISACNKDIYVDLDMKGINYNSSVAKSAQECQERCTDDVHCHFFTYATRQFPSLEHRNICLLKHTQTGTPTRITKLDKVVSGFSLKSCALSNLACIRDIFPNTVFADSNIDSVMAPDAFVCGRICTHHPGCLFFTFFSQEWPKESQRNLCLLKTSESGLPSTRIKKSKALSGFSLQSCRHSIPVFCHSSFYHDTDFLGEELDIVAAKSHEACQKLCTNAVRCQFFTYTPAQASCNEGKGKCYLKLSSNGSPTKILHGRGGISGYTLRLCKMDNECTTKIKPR
Source text: Biological Example 1: Factor XIa Inhibition Assay Utilizing a Fluorophore-Quencher Pair Peptide Substrate
A fluorescence intensity (FLINT) based assay was used to monitor inhibition of Factor XIa. The peptide substrate, 5Fam-KLTRAETV-K5Tamra (purchased from New England Peptide) was chosen based on the FXI sequence. Conversion of zymogen FXI to its activated form, FXIa, occurs by proteolytic cleavage by […] at two sites, Arg146 and Arg180. The custom peptide used in this assay was based on the Arg146 cleavage site of FXI. The peptide substrate was designed with a fluorophore-quencher pair, where the fluorescence is quenched until FXIa cleaves the 8-mer peptide after the Arg residue.
The Factor XIa FLINT assay was used with the following 5Fam-KLTRAETV-K5Tamra assay buffer: 50 mM Tris, pH 7.5, 100 mM NaCl, 5 mM CaCl2, 0.1 mg/mL BSA, 0.03% CHAPS. Assay buffer was prepared by mixing all ingredients fresh. 5Fam-KLTRAETV-K5Tamra peptide substrate was first prepared at 10 mM in 100% DMSO, then diluted to 3 mM in 100% DMSO. Assay buffer was then added directly to the 3 mM stock of substrate to prepare the 30 μM 2× working concentration (15 μM final concentration). The 2× Factor XIa stock solution was prepared by diluting 6.562 μM stock in 1× assay buffer for a […].
Test compound(s) were run in an 11-point, 3-fold serial dilution with a final top compound concentration of 100 nM. Final DMSO in assay was 2%. FXIa was preincubated with compound for 30-minutes and then substrate was added to initiate the reaction. The assay was run with kinetic (KIN) reads at 5 min intervals over 30 minutes. […] More specifically, the assay was run as follows: • 100 nL of 0.01 mM test compound was dispensed into black 384-well non-binding Greiner BioOne 784900 plate for 0.1 μM final concentration, • 5 μL of 1× assay buffer was dispensed to column 24 (low control) and 5 μL 2× Factor XIa solution was dispensed to columns 1-23 (column 23 high control); • the plate was centrifuged with a “cover” plate at 500 rpm for 1 min • the plate was pre-incubated for 30 minutes at room temperature with plate covered; • 5 μL of 2×5Fam-KLTRAETV-K5Tamra peptide substrate was dispensed into the entire plate, columns 1-24; • the plate was centrifuged with a “cover” plate at 500 rpm for 1 min; • the plate was read monitoring fluorescence intensity on the BMG PHERAStar at room temperature, using fluorescence module 485 nm/520 nm.
as §1
where LC—low control=mean signal of no Factor XIa or 100% inhibition of Factor XIa; HC—high control=mean signal of Factor XIa+5Fam-KLTRAETV-K5Tamra peptide substrate with DMSO only.
as §2
where Y is the % inhibition in the presence of X inhibitor concentration, Top=high control=mean signal of Factor XIa+5Fam-KLTRAETV-K5Tamra peptide substrate with DMSO only; Bottom=low control—mean signal of no Factor XIa or 100% inhibition of Factor XIa; HillSlope—Hill coefficient; and IC50=concentration of compound with 50% inhibition in relation to top/high control.

Sequence of human plasma kallikrein (P03952 391-638 limits assumed): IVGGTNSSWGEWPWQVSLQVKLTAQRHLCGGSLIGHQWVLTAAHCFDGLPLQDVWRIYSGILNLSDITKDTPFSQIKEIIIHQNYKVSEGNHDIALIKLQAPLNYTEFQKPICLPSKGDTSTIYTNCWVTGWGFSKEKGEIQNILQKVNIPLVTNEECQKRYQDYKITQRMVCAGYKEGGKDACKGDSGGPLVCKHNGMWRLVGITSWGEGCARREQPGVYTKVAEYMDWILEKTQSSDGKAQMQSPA
Sequence of human plasma kallikrein (P03952 20-390 partner limits assumed): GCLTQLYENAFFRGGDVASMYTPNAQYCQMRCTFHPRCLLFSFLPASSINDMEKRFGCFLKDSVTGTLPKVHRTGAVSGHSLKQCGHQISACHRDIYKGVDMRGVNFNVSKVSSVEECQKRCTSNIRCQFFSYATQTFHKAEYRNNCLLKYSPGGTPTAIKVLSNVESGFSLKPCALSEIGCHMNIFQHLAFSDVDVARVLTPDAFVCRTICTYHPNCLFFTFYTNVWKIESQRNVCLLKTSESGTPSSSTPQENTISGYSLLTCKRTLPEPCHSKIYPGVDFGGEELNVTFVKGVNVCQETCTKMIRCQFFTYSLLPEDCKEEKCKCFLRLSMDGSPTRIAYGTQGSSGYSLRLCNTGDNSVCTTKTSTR

For orientation: IC50 means the concentration that gives 50% inhibition. With `CC(C)(O)c1nc2cc(NC(=O)[C@@H]3CCC4CC(c5c(-n6cnnn6)ccc(Cl)c5F)=CC(=O)N43)ccc2s1` (mixture of isomers) [compound 90], the figures for the 50% inhibitory concentration (IC50) in assay [1] and in assay [2] were 109 nM and over 50 nM, respectively.
In the case of `CC(O)c1nc2cc(NC(=O)[C@@H]3CCC4CC(c5c(-n6cnnn6)ccc(Cl)c5F)=CC(=O)N43)ccc2s1` (mixture of isomers) [compound 91], the IC50 in assay [1] is 115 nM; in assay [2], over 50 nM.
Regarding `CC(O)c1nc2cc(NC(=O)[C@@H]3CCC4CC(c5c(-n6cnnn6)ccc(Cl)c5F)=CC(=O)N43)ccc2s1` (mixture of isomers) [compound 92], the IC50 stood at 50.4 nM in assay [1] and 33.5 nM in assay [2].
For `CCOCCOc1ccc2cc(NC(=O)[C@@H]3CCC4CC(c5c(-n6cc(C(F)(F)F)nn6)ccc(Cl)c5F)=CC(=O)N43)ccc2n1` (mixture of isomers) [compound 107] the same measures were 190 nM and over 50 nM.
As for `CO[C@H]1C[C@@H](C(=O)Nc2ccc3nn(C)cc3c2)N2C(=O)C=C(c3c(-n4cnnn4)ccc(Cl)c3F)CC12` (mixture of isomers) [compound 110], in assay [2], the IC50 was over 100 nM.
With `COCCn1ncc2cc(NC(=O)[C@@H]3CCC4CC(c5c(-n6cnnn6)ccc(Cl)c5F)=CC(=O)N43)ccc21` (mixture of isomers) [ID No. 4, (3S)-7-(3-chloro-2-fluoro-6-(1H-tetrazol-1-yl)phenyl)-N-(1-(2-methoxyethyl)-1H-indazol-5-yl)-5-oxo-1,2,3,5,8,8a-hexahydroindolizine-3-carboxamide], the IC50 in assay [1] turned out to be 106 nM; in assay [2], 26.9 nM.
The corresponding values for `O=C(O)c1[nH]c2ccc(NC(=O)[C@@H]3CCC4CC(c5c(-n6cnnn6)ccc(Cl)c5F)=CC(=O)N43)cc2c1F` (mixture of isomers) [ID No. 26, 5-[[(3S)-7-[3-Chloro-2-fluoro-6-(tetrazol-1-yl)phenyl]-5-oxo-2,3,8,8a-tetrahydro-1H-indolizine-3-carbonyl]amino]-3-fluoro-1H-indole-2-carboxylic acid] are 60.4 nM and 3.2 nM.
As to `CO[C@H]1C[C@@H](C(=O)Nc2ccc3n[nH]cc3c2)N2C(=O)C=C(c3c(-n4cnnn4)ccc(Cl)c3F)CC12` (mixture of isomers) [ID No. 27, (1S,3S)-7-[3-Chloro-2-fluoro-6-(tetrazol-1-yl)phenyl]-N-(2H-indazol-5-yl)-1-methoxy-5-oxo-2,3,8,8a-tetrahydro-1H-indolizine-3-carboxamide], in assay [2], the IC50 was 136 nM.
Take `CO[C@H]1C[C@@H](C(=O)Nc2ccc3nccnc3c2)N2C(=O)C=C(c3c(-n4cnnn4)ccc(Cl)c3F)CC12` (mixture of isomers) [ID No. 28, (1S,3S)-7-[3-Chloro-2-fluoro-6-(tetrazol-1-yl)phenyl]-1-methoxy-5-oxo-N-quinoxalin-6-yl-2,3,8,8a-tetrahydro-1H-indolizine-3-carboxamide]: the IC50 in assay [1] was 431 nM; in assay [2], about 189 nM.
As for `O=C(Nc1ccc(-c2nc(=O)o[nH]2)cc1)[C@@H]1CCC2CC(c3c(OCC(F)(F)F)ccc(Cl)c3F)=CC(=O)N21` (mixture of isomers) [ID No. 40, (3S)-7-(3-Chloro-2-fluoro-6-(2,2,2-trifluoroethoxy)phenyl)-5-oxo-N-(4-(5-oxo-2,5-dihydro-1,2,4-oxadiazol-3-yl)phenyl)-1,2,3,5,8,8a-hexahydroindolizine-3-carboxamide], in assay [2], the half-inhibitory concentration (IC50) came to 30.8 nM.
Still for that read-out and setting: under `Cn1oc(=O)nc1-c1ccc(NC(=O)[C@@H]2CCC3CC(c4c(-n5cnnn5)ccc(Cl)c4F)=CC(=O)N32)cc1` (mixture of isomers) [ID No. 67, (3S)-7-[3-Chloro-2-fluoro-6-(tetrazol-1-yl)phenyl]-N-[4-(2-methyl-5-oxo-1,2,4-oxadiazol-3-yl)phenyl]-5-oxo-2,3,8,8a-tetrahydro-1H-indolizine-3-carboxamide] stands 183 nM.
On to `Cn1ccnc1-c1ccc(NC(=O)[C@@H]2CCC3CC(c4c(-n5cnnn5)ccc(Cl)c4F)=CC(=O)N32)cc1` (mixture of isomers) [ID No. 78, (3S)-7-[3-Chloro-2-fluoro-6-(tetrazol-1-yl)phenyl]-N-[4-(1-methylimidazol-2-yl)phenyl]-5-oxo-2,3,8,8a-tetrahydro-1H-indolizine-3-carboxamide], for which the half-maximal inhibitory concentration (IC50) in assay [2] was found to be 58.4 nM.
On to `C[C@@H]1C[C@@H](C(=O)Nc2ccc3nccnc3c2)N2C(=O)C=C(c3c(-n4cnnn4)ccc(Cl)c3F)C[C@H]12` (single isomer, unassigned) [ID No. 81, (1R*,3S,8aR*)-7-[3-Chloro-2-fluoro-6-(tetrazol-1-yl)phenyl]-1-methyl-5-oxo-N-quinoxalin-6-yl-2,3,8,8a-tetrahydro-1H-indolizine-3-carboxamide], for which, in assay [2], the IC50 worked out at 639 nM.
Still for that read-out and setting: under `COCCNC(=O)c1ccc(NC(=O)[C@@H]2CCC3CC(c4c(-n5cnnn5)ccc(Cl)c4F)=CC(=O)N32)cc1F` (single isomer, unassigned) [ID No. 94, (3S,8aS*)-7-(3-chloro-2-fluoro-6-(1H-tetrazol-1-yl)phenyl)-N-(3-fluoro-4-((2-methoxyethyl)carbamoyl)phenyl)-5-oxo-1,2,3,5,8,8a-hexahydroindolizine-3-carboxamide] stands over 50 nM; under `O=C(O)C1CCc2ccc(NC(=O)[C@@H]3CC[C@@H]4CC(c5c(-n6cc(C(F)(F)F)nn6)ccc(Cl)c5F)=CC(=O)N43)cc21` (stereo partly shown) [compound 104], over 50 nM.
